Key:
[1] = tested on: NFκB promoter activity in Panc-1 cells; assay: Luciferase assay for NFκB activity, Panc-1; type: cell-based
Description: FIGS. 3A, 3B, and 3C show the effect of cromolyn on S100P stimulated NFκB promoter activity in pancreatic cancer cells in vitro and in vivo. Panc-1 and BxPC-3 pancreatic cancer cell lines stably expressing an NFκB luciferase reporter were examined for the effects of S100P and cromolyn. […] Means and 95% confidence intervals are shown for three independent experiments performed in triplicate. *, P=0.022, †, P<0.001, and ‡, P<0.001 versus control; #, P=0.005 versus 100 nM S100P alone. […] Means and 95% confidence intervals are shown for three independent experiments performed in triplicate. *, P=0.003, †, P<0.001 versus control. […] After 1 week, tumor growth was assessed and NFκB activity was analyzed using an IVIS system (Xenogen Corp., Alameda, Calif.) after injecting mice with D-luciferin (150 mg per kg body weight) (0 time point). The mice were treated with cromolyn (5 mg per kg body weight by intraperitoneal injection), and NFκB luciferase activity was analyzed again at 24 and 48 hours. *, P=0.005 versus control. Means and 95% confidence intervals are shown for two independent experiments (n=4 mice per group). Two-tailed two-sample (unpaired for in vitro and paired for in vivo studies) Student's t-tests were used to determine P values.
To study pancreatic cancer cell NFκB activity, a lentivirus NFκB luciferase reporter gene construct was developed. The NFκB luciferase reporter gene was excised and isolated from the pNF-κB-Luc Vector (Clonetec, Mountain View, Calif.) and cloned into the lentiviral vector FG9 (Gift from Dr. Xiao-Feng Qin, Dept. of Immunology, M.D. Anderson Cancer Center replacing the CMV/LTR and UBiC promoters, to form Lenti-NFκB-Luc. Lentiviral NFκB vector were co-transfected with packaging constructs pRSVREV, pMDLg/pRRE, and the VSV-G expression plasmid pHCMVG, and lentivirus was produced in 293T cells by the calcium transfection method, as previously described in Qin, et al., Inhibiting HIV-1 infection in human T cells by lentiviral-mediated delivery of small interfering RNA against CCR5; Proc. Natl. Acad. Sci. U.S.A. 2003 Jan. 7; 100(1):183-8. […] Functional validation of NFκB reporter activity was conducted in vitro using TNF-α (20 ng/mL, Sigma, St. Louis, Mo.) as a positive control.
BxPC-3 and Panc-1 cells stably expressing a Lenti-NFkB-luc reporter construct were treated with S100P, cromolyn, or the combination for 5 hours. D-luciferin (150 μg/mL) was added to the cells, and luciferase activity was measured using an IVIS bioluminescence system (Xenogen Co. Alameda, Calif.). Each experiment was conducted three times in triplicate.

S100P binding with RAGE = biological target: T1, S100P binding with RAGE (Homo sapiens, UniProt P25815); assay: S100P binding with RAGE ELISA (sRAGE coated plate)
T1 construct: full-length human S100P cDNA (NM_005980) was cloned into the pTrcHis2 vector; His tag
T1 sequence (P25815 1-95): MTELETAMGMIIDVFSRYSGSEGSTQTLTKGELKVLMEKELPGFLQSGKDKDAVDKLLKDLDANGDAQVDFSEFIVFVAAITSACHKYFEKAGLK
Description: After removing un-bound S100P by washing with detergent, the bound S100P and RAGE complex was quantified by adding HRP labeled antibody against S100P. *, P=0.04 C5 μM versus cromolyn 5 μM. Two-tailed two-sample (unpaired) Student's t-tests were used to determine P values.

Panc-1 cells = assay: Matrigel invasion assay, Panc-1; type: cell-based; conditions: 24 hours
Description: FIGS. 2A-2D show the effect of cromolyn on pancreatic cancer cell invasion. Panc-1 and BxPC-3 cells were plated in Bio-coat matrigel and control chambers and cultured in serum-free culture media. After 24 hours non-invaded cells in the upper chamber were removed, and cells that invaded onto the lower surface of the membrane were counted from five adjacent fields. […] Data are expressed as the percent invasion through the matrigel matrix and membrane relative to migration through the control membrane. Means and 95% confidence intervals from three independent experiments performed in triplicate are shown. Two-tailed two-sample (unpaired) Student's t-tests were used to determine P values.
Panc-1 and BxPC-3 cells were seeded in BIOCOAT matrigel invasion chambers and in control chambers without matrigel (Becton-Dickinson, Bedford, Mass.) according to the manufacturer's protocol. Panc-1 cells were seeded with S100P (100 nM) with or without cromolyn (100 μM), and BxPC-3 cells were seeded with or without cromolyn (1-100 μM). Briefly, 2.0×10^5 cells in 300 μL top solution (serum-free media) were added to each chamber and allowed to invade matrigel for 24 hours at 37° C. in a 5% CO2 atmosphere. The non-invading cells on the upper surface of membrane were removed from the chambers with a cotton swab, and the invading cells on the lower surface of the membrane were fixed and stained using a Diff-Quick stain kit (Becton Dickinson, Bedford, Mass.). After two washes with water, the chambers were allowed to air dry. The numbers of invading cells in five adjacent microscope fields per membrane were counted at 20× magnification to obtain the average number of cells per field. Data are expressed as the percent invasion through the matrigel matrix and membrane relative to the migration through the control membrane. The assays were performed three times.

SW480 cells = assay: SW480 colon cancer cell invasion (matrigel transwell); type: cell-based; conditions: cromolyn 10 μM and 100 μM, 24 hours
Description: SW480 cells were plated on top of a layer of matrigel in a Boyden type chamber (transwell). Media containing 5% FBS was placed in the lower well and the cells were allowed to invade the matrigel layer for 24 hours in the presence of different concentrations of cromolyn.

[2] = tested on: NFκB promoter activity in BxPC-3 cells; assay: Luciferase assay for NFκB activity, BxPC-3; type: cell-based; conditions: for basal NFκB activity in BxPC-3 cells, mean: 5 hours, 0 μM mean=1.4×10^6
[3] = tested on: NFκB activity in MPanc-96 cells; assay: S100P stimulated NFκB luciferase reporter, MPanc-96; type: cell-based, human; conditions: S100P 100 nM, compound 1 μM, 5 hours
Description: MPanc-96 pancreatic cancer cell lines stably expressing an NFκB luciferase reporter were examined for the effects of S100P, cromolyn and C5. Cells were plated at 5.0×10^3 cells/well, treated for 5 hours with 100 nM of S100P, with or without cromolyn and C5 (1 μM), and activity of a luciferase gene driven by the NFkB promoter was analyzed. P=0.05 C5 versus cromolyn. Two-tailed two-sample (unpaired) Student's t-tests were used to determine P values.

concentration achieving the same level of S100P inhibition (S100P binding with RAGE): 5 µM
interaction between S100P with RAGE (S100P binding with RAGE): blocked
Structure (SMILES): O=C(O)c1cc(=O)c2c(OCC(O)COc3cccc4oc(C(=O)O)cc(=O)c34)cccc2o1 [cromolyn, disodium 1,3-bis[(2′-carboxylatochromon-5′-yl)oxy]-2-hydroxypropane]
NFκB promoter activity in Panc-1 cells, mean ([1]; S100P 100 nM + cromolyn 100 μM, 5 hours, S100P alone mean=14460): 7360 photons/sec
NFκB promoter activity in Panc-1 cells, difference S100P alone versus combination with cromolyn ([1]; S100P 100 nM, cromolyn 100 μM): 7100 photons/sec
basal NFκB activity in Panc-1 cells ([1]; cromolyn 100 μM, no S100P, 5 hours): no effect
Panc-1 cells invaded, difference S100P versus S100P+cromolyn (Panc-1 cells): 48.6%
Panc-1 cells invaded, mean (Panc-1 cells; S100P 100 nM + cromolyn 100 μM): 9.4%
Panc-1 basal cell invasion (Panc-1 cells; no S100P): did not reduce basal cell invasion
invasiveness of SW480 cells (SW480 cells): reduced the invasiveness
basal NFκB activity in BxPC-3 cells, difference versus 0 μM ([2]; cromolyn 10 μM): 4.7×10^5 photons/sec
basal NFκB activity in BxPC-3 cells, mean ([2]; cromolyn 10 μM): 9.4×10^5 photons/sec
basal NFκB activity in BxPC-3 cells, difference versus 0 μM ([2]; cromolyn 100 μM): 5.9×10^5 photons/sec
basal NFκB activity in BxPC-3 cells, mean ([2]; cromolyn 100 μM): 8.2×10^5 photons/sec
NFκB activity in pancreatic cancer cells in vitro [3]: inhibit NFκB activity

— US8252807B2, “Methods of inhibiting the interaction between S100 and the receptor for advanced glycation end-products” (Board of Regents, The University of Texas System, priority 2007, dated 2012)
